From patent USRE39197E1, “Cell adhesion-inhibiting antiinflammatory and immune-suppressive compounds” (Abbott Laboratories, priority 1998, dated 2006)

What was measured:
[1] = tested on: adherence of JY-8 cells (expressing LFA-1) to immobilized ICAM-1; test: ICAM-1/JY-8 Cell Adhesion Assay; format: cell-based, human
Experimental: ICAM-1/JT-8 Cell Adhesion Assay
For measurment measurement of inhibotory inhibitory activity in the cell-based adhesion assay, 96-well microtiter plates are were coated with 70 μL of recombinat recombinant ICAM-1/Ig (ICOS Corporation) at a concentration of 5 μg/mL in D-PBS w/o without Ca^++ or Mg++ or Mg^++ overnight at 4° C. The wells are were then washed twice with D-PBS and blocked by addition of 200 μL of D-PBS, 5% fish skin gelatin by incubation for 1 hour at room temperature. […] The percent inhibition of a candidate compound at a given concentration is was calculated using the following equation: [formula] and these concentration/inhibition data are were used to generate does response curves, from which IC50 values are were derived.

[2] = biological target: T1, interaction between the integrin LFA-1 and its adhesion partner ICAM-1 (Homo sapiens, UniProt P20701); test: ICAM-1/LFA-1 Biochemical Interaction Assay; format: binding; conditions: 4 μM compound; recombinant LFA-1, biotinylated ICAM-1/Ig
T1 construct: Recombinant LFA-1 (100 μL of 0.7 μg/ml mL, ICOS Corporation) in D-PBS; purchased ICOS Corporation
Experimental: Compounds that antagonize the interaction between ICAM-1 and LFA-1 can be identified, and their activities quantitated, using both biochemical and cell-based adhesion assays. A primary biochemical assay measures the ability of the compound in question to block the interaction between the integrin LFA-1 and its adhesion partner ICAM-1, as described below:
ICAM-1/LFA-1 Biochemical Interaction Assay
In the biochemical assay, 100 μL of anti-LFA-1 antibody (ICOS Corporation) at a concentration of 5 μg/ml mL in Dulbecco's phosphate-buffered saaline (D-PBS) is used to coat wells of a 96-well microtiter plate overnight at 4° C. The wells are were then washed twice with wash buffer (D-PBS w/o Ca^++ or Mg^++, 0.05% Tween 20) and blocked by addition of 200 μL of D-PBS, 5% fish skin gelatin. Recombinant LFA-1 (100 μL of 0.7 μg/ml mL, ICOS Corporation) in D-PBS is was then added to each well. Incubation continues continued for 1 hour at room temperature and the wells are were washed twice with wash buffer. Serial dilutions of compounds being assayed as ICAM-1/LFA-1 antagonists, were prepared as 10 mM stock solutions in dimethyl sulfoxide (DMSO), are were diluted in D-PBS, 2 mM MgCl2, 1% fish skin gelatin and 50 μL of each dilution was added to duplicate wells. This is was followed by the addition of 50 μL of 0.8 μg/ml mL biotinylated recombinant ICAM-1/Ig (ICOS Corporation) to the wells and the plates are were incubated at room temperature for 1 hour. The wells are were then washed twice with wash buffer and 100 μL of Europium-labeled Streptavidin (Wallac Oy) diluted 1:100 in Delfia assay buffer (Wallac Oy), are was then added to the wells. Incubation proceeds proceeded for 1 hour at room temperature. The wells are were washed eight times with wash buffer and 100 μL of enhancement solution (Wallac Oy, cat. No. 1244-105) are was added to each well. Incubation proceeds proceeded for 5 minutes with constant mixing. Time-resolved fluorimetry measurements are were made using the a Victor 1420 Multilabel Counter (Wallac Oy) and the percent inhibition of each candidate compound is was calculated using the following equation: [formula] where “background” refers to wells that are were not coated with anti-LFA-1 antibody.

[3] = tested on: adhesion of JY-8 cells (expressing LFA-1) to immobilized ICAM-3; test: ICAM-3/JY-8 Cell Adhesion Assay; format: cell-based, human; conditions: 0.6 μM compound, JY-8 cells on immobilized ICAM-3/Ig; for inhibition at 0.6 µM: Homo sapiens
Experimental: As such, it is expected that these compounds should block the interaction of LFA-1 with other CAM's. […] Compounds of the present invention may be evaluated for their ability to block the adhesion of JY-8 cells (a human EBV-transformed B cell line expressing LFA-1 on its surface) to immobilized ICAM-3, as follows:
ICAM-3/JY-8 Cell Adhesion Assay
For measurement of inhibitory activity in the cell-based adhesion assay, 96-well microtiter plates are were coated with 50 μL of recombinant ICAM-3/Ig (ICOS Corporation) at a concentration of 10 μg/mL in D-PBS w/o without Ca^++ or Mg^++ overnight at 4° C. The wells are were then washed twice with D-PBS, blocked by addition of 100 μL of D-PBS, 1% bovine serum albumin (BSA) by incubation for 1 hour at room temperature, and washed once with RPMI-1640/5% heat-inactivated fetal bovine serum (adhesion buffer). Dilutions of compounds to be assayed for ICAM-3/LFA-1 antagonistic activity are were prepared in adhesion buffer from 10 mM stock solutions in DMSO and 100 μL are were added to duplicate wells. JY-8 cells (a human EBV-transformed B cell line expressing LFA-1 on its surface; 100 μL at 0.75×10^6 cells/ml mL in adhesion buffer) are were then added to the wells. Microtiter plates are were incubated for 30 minutes at room temperature; the adherent cells are were then fixed with 50 μL of 14% glutaraldehyde/D-PBS and were incubated for an additional 90 minutes. The wells are were washed gently with dH2O; 50 μL of dH2O is was added, following followed by 50 μL of 1% crystal violet. After 5 minutes the plates are were washed 3× times with dH2O; 75 μL of dH2O and 225 μL of 95% EtOH are were added to each well to extract the crystal violet from the cells. Absorbance is was measured at […] in an ELISA plate reader. The percent inhibition of a candidate compound is was calculated using the following equation. [formula]

[4] = Homo sapiens, JY-8, JY-8 cells on immobilized ICAM-1/Ig
[5] = JY-8 cells on immobilized ICAM-1/Ig

T1 sequence (P20701 26-1170): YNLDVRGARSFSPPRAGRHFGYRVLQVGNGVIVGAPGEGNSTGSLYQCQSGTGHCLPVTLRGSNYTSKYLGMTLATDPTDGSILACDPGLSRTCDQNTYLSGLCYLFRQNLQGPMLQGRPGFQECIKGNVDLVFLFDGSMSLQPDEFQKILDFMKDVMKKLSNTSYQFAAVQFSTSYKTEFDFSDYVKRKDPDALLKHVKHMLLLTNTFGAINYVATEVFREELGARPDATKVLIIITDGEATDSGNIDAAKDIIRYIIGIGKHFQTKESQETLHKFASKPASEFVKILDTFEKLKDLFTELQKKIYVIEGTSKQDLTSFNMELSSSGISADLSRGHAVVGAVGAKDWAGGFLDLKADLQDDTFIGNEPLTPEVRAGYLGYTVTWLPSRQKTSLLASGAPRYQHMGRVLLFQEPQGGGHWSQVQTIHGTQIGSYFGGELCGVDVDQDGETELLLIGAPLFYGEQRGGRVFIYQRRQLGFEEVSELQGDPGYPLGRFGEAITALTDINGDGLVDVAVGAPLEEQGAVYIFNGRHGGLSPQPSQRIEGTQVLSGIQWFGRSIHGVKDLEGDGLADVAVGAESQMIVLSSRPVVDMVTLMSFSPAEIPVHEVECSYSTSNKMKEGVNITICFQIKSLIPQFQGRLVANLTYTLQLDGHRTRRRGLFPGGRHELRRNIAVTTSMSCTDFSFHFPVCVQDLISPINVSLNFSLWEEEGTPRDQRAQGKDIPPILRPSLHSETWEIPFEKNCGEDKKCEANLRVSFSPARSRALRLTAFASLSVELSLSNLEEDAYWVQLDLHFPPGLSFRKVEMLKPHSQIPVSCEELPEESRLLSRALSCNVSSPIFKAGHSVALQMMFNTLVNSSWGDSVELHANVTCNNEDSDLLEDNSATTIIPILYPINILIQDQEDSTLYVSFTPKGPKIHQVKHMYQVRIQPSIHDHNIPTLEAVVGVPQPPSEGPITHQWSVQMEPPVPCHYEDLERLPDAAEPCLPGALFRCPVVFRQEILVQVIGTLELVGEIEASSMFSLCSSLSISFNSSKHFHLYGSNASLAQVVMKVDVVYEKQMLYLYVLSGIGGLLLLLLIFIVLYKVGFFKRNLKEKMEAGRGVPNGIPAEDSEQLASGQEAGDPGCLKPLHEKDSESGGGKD
T1 sequence (P05107 23-769 partner): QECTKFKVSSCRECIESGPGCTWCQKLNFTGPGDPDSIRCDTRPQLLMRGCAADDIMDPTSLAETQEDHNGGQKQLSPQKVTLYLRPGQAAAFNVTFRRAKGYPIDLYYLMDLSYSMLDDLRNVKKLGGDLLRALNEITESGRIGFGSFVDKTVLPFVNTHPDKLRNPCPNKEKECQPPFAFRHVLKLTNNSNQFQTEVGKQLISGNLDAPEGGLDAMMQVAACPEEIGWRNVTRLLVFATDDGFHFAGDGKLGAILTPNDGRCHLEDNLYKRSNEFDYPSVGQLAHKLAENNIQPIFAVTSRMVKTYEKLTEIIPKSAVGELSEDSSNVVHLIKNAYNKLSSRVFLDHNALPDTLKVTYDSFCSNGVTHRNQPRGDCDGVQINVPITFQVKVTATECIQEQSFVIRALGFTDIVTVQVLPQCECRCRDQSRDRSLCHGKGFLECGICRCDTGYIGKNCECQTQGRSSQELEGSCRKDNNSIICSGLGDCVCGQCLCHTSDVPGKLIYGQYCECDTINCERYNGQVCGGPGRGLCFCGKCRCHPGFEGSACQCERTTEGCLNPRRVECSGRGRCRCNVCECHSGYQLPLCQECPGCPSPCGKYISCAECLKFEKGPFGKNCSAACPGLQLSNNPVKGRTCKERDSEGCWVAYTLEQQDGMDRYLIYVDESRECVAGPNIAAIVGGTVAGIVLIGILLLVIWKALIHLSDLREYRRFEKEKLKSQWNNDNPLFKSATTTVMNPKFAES

Compound: CC(=O)N1CCN(C(=O)/C=C/c2ccc(Sc3ccc(Br)cc3)c([N+](=O)[O-])c2)CC1 [Example 35, (4-Bromophenyl)[2-nitro-4-(E-((4-acetylpiperazin-1-yl)carbonyl)ethenyl)phenyl]sulfide]
- IC50 [1, 4]: 430 nM
- inhibition at 4 µM [2]: 89%
- inhibition at 0.6 µM [3]: 100%

Compound: CC(=O)N1CCN(C(=O)/C=C/c2ccc(Sc3cccc(Cl)c3Cl)c([N+](=O)[O-])c2)CC1 [Example 34, (2,3-Dichlorophenyl)[2-nitro-4-(E-((4-acetylpiperazin-1-yl)carbonyl)ethenyl)phenyl]sulfide]
- IC50 [1, 4]: 70 nM
- inhibition at 4 µM [2]: 91%
- inhibition at 0.6 µM [3]: 100%

Compound: CC(=O)N1CCN(C(=O)/C=C/c2ccc(Sc3ccccc3C)c([N+](=O)[O-])c2)CC1 [Example 45, (2-Methylphenyl)[2-nitro-4-(E-((4-acetylpiperazin-1-yl)carbonyl)ethenyl)phenyl]sulfide]
- IC50 [1, 4]: 50 nM
- inhibition at 4 µM [2]: 88%
- inhibition at 0.6 µM [3]: 100%

Compound: CC(=O)N1CCN(C(=O)/C=C/c2ccc(Sc3ccccc3C=O)c([N+](=O)[O-])c2)CC1 [Example 60, (2-Formylphenyl)[2-nitro-4-(E-((4-acetylpiperazin-1-yl)carbonyl)ethenyl)phenyl]sulfide]
- IC50 ([1]; Homo sapiens, JY-8 cells on immobilized ICAM-1/Ig): 30 nM
- inhibition at 4 µM [2]: 95%
- inhibition at 0.6 µM [3]: 100%

Compound: Cc1ccccc1Sc1ccc(/C=C/C(=O)NCCCN2CCCC2=O)cc1C(F)(F)F [Example 30, (2-Methylphenyl)[2-trifluoromethyl-4-(E-((3-(2-oxopyrrolidin-1-yl)propylamino)carbonyl)ethenyl)phenyl]sulfide]
- IC50 [1, 4]: 250 nM
- inhibition at 4 µM [2]: 93%
- inhibition at 0.6 µM [3]: 100%

Compound: CCc1ccccc1Sc1ccc(/C=C/C(=O)N2CCN(C(C)=O)CC2)cc1[N+](=O)[O-] [Example 49, (2-Ethylphenyl)[2-nitro-4-(E-((4-acetylpiperazin-1-yl)carbonyl)ethenyl)phenyl]sulfide]
- IC50 [1, 4]: 20 nM
- inhibition at 4 µM [2]: 93%
- inhibition at 0.6 µM [3]: 100%

Compound: CC(=O)NC1CCN(C(=O)/C=C/c2ccc(Sc3ccccc3Br)c(Cl)c2)C1 (stereo not drawn) [Example 17]
- IC50 [1, 5]: 5800 nM
- % inhibition @ 4 μM [2]: 84%
- % inhibition @ 0.6 μM [3]: 100%

Compound: CC(=O)N1CCN(C(=O)/C=C/c2ccc(Sc3ccccc3Cl)c([N+](=O)[O-])c2)CC1 [Example 46, (2-Chlorophenyl)[2-nitro-4-(E-((4-acetylpiperazin-1-yl)carbonyl)ethenyl)phenyl]sulfide]
- IC50 [1, 4]: 60 nM
- inhibition at 4 µM [2]: 87%
- inhibition at 0.6 µM [3]: 100%

Compound: CCN(CC)C(=O)N1CCN(C(=O)/C=C/c2ccc(Sc3ccc(Cl)cc3Cl)c([N+](=O)[O-])c2)CC1 [Example 41, (2,4-Dichlorophenyl)[2-nitro-4-(E-((4-(diethylaminocarbonyl)piperazin-1-yl)carbonyl)ethenyl)phenyl]sulfide]
- IC50 [1, 4]: 110 nM
- inhibition at 4 µM [2]: 83%
- inhibition at 0.6 µM [3]: 100%

Compound: O=C(/C=C/c1ccc(Sc2ccccc2Br)c(Cl)c1)N1CCCC(CO)C1 (stereo not drawn) [Example 15, (2-(Bromophenl)[2-chloro-4-(E-((3-hydroxymethyl)piperidin-1-yl)carbonyl)ethenyl)phenyl]sulfide]
- IC50 [1, 5]: 140 nM
- % inhibition @ 4 μM [2]: 88%
- % inhibition @ 0.6 μM [3]: 100%

Compound: CC(=O)N1CCN(C(=O)/C=C/c2ccc(Sc3ccccc3C)c(C(F)(F)F)c2)CC1 [Example 26]
- IC50 [1, 5]: 110 nM
- % inhibition @ 4 μM [2]: 94%
- % inhibition @ 0.6 μM [3]: 100%

Compound: O=C(/C=C/c1ccc(Sc2ccccc2Br)c(Cl)c1)N1CCOCC1 [Example 12]
- IC50 [1, 5]: 360 nM
- % inhibition @ 4 μM [2]: 90%
- % inhibition @ 0.6 μM [3]: 100%

Compound: O=C(/C=C/c1ccc(Sc2ccccc2Br)c(Cl)c1)N1CCC(O)CC1 [Example 18]
- IC50 [1, 5]: 130 nM
- % inhibition @ 4 μM [2]: 86%
- % inhibition @ 0.6 μM [3]: 100%

Compound: O=C(/C=C/c1ccc(Sc2ccccc2Br)c(Cl)c1)N1CCCCC1CO (stereo not drawn) [Example 16, (2-(Bromophenyl)[2-chloro-4-(E-((2-hydroxymethyl)piperidin-1-yl)carbonyl)ethenyl)phenyl]sulfide]
- IC50 [1, 5]: 300 nM
- % inhibition @ 4 μM [2]: 86%
- % inhibition @ 0.6 μM [3]: 100%

Compound: Cc1ccccc1Sc1ccc(/C=C/C(=O)N2CCOCC2)cc1C(F)(F)F [Example 27, (2-Methylphenyl)[2-trifluoromethyl-4-(E-((1-morpholinyl)carbonyl)ethenyl)phenyl]sulfide]
- IC50 [1, 5]: 160 nM
- % inhibition @ 4 μM [2]: 94%
- % inhibition @ 0.6 μM [3]: 100%
